# Earlier results as cited in patent publication US20110123575A1, “MODIFIED RELEASE NIACIN FORMULATIONS” (DR. REDDY'S LABORATORIES LTD., priority 2008, published 2011).
# Conditions: white, crystalline powder
structure (smiles),measurement,value
"O=C(O)c1cccnc1 [Niacin, 3-pyridinecarboxylic acid]",solubility in water,very soluble in water
